Data: patent US10028992B2, “Methods of treating muscular dystrophy” (BOARD OF REGENTS OF THE NEVADA SYSTEM OF HIGHER EDUCATION …, priority 2012, dated 2018)

Tested on: α7 integrin promoter
Assay: muscle cell-based assay: α7βgal+/− myoblasts/myotubes, LacZ reporter, β-galactosidase cleavage of FDG
Set-up: species or system mouse
Settings: Myotubes; for Results in a α7+/− β-galactosidase assay, Myotubes, 0.5 uM: compound at 0.5 uM; for Results in a α7+/− β-galactosidase assay, Myotubes, 1 uM: compound at 1 uM; for Results in a α7+/− β-galactosidase assay, Myotubes, 5 uM: compound at 5 uM; for Results in a α7+/− β-galactosidase assay, Myotubes, 10 uM: compound at 10 uM; for Results in a α7+/− β-galactosidase assay, Myotubes, 20 uM: compound at 20 uM; for Results in a α7+/− β-galactosidase assay, Myotubes, 40 uM: compound at 40 uM
How it was run: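 Primary α7βgal+/− mouse myoblasts (LacZ knocked into α7 integrin exon 1, promoter retained), differentiated; promoter activity read as β-galactosidase conversion of non-fluorescent FDG to fluorescein. Hits followed by dose-response, western analysis and myostatin counterscreen.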

| Compound | Results in a α7+/− β-galactosidase assay, Myotubes, 0.5 uM | Results in a α7+/− β-galactosidase assay, Myotubes, 1 uM | Results in a α7+/− β-galactosidase assay, Myotubes, 5 uM | Results in a α7+/− β-galactosidase assay, Myotubes, 10 uM | Results in a α7+/− β-galactosidase assay, Myotubes, 20 uM | Results in a α7+/− β-galactosidase assay, Myotubes, 40 uM |
| --- | --- | --- | --- | --- | --- | --- |
| O=C(NCCc1ccc(Cl)cc1)C1CCCO1 (stereo not drawn) [drawing 481] | 0.008299 | −0.0666 | 0.2373 | −0.07246 | −0.08414 | −0.169 |
| CCNC(=O)C(=O)Nc1cc2c3c(c1)CCN3C(=O)CC2 [drawing 482] | 0.05071 | −0.07574 | 0.4036 | −0.03505 | −0.1926 | −0.2686 |
| Cc1cccc(NCC(=O)N/N=C/c2ccccn2)c1 [drawing 483] | 0.07633 | −0.04251 | 0.2712 | −0.04805 | 0.03613 | −0.1705 |
| COc1ccc(CN2CCNC(=O)C2CC(=O)NCCc2c[nH]c3ccccc23)c(OC)c1 (stereo not drawn) [drawing 484] | −0.059 | −0.1025 | 0.1466 | −0.2654 | −0.1345 | −0.1806 |
| O=c1c2cc(-c3ccccc3)sc2nc2n1N=C(c1ccccc1)CS2 [drawing 485] | 0.02668 | −0.1163 | 0.0299 | −0.3812 | −0.1377 | −0.1734 |
| Nc1ncnc(NCc2ccccc2)c1[N+](=O)[O-] [drawing 486] | 0.008395 | −0.1282 | 0.2507 | −0.3338 | −0.03158 | −0.2067 |
| O=CN1CCN(C(=O)CC(c2ccccc2)c2cc(Br)ccc2O)CC1 (stereo not drawn) [drawing 487] | −0.0643 | −0.1354 | 0.1295 | −0.2355 | −0.0629 | −0.1726 |
| Cc1ccc2c(c1)/C(=C/c1ccco1)C(=O)N2 [drawing 488] | −0.00427 | −0.00615 | 0.07579 | −0.3334 | 0.0134 | −0.2855 |
| O=C1CCC(C(=O)N2CCSCC2)CN1Cc1ccc(Cl)cc1 (stereo not drawn) [drawing 489] | 0.02632 | 0.1369 | 0.02663 | 0.3226 | 0.2089 | 0.5544 |
| c1ccc(-c2cn3c4c(sc3n2)CCCC4)cc1 [drawing 490] | −0.06339 | 0.06029 | −0.3683 | −0.08198 | −0.09547 | 0.1666 |
